Measured values from PMC6155021, “Ancient and modern anticonvulsants act synergistically in a KCNQ potassium channel binding pocket” (Nature Communications, 2018).

Tests used:
[1] = test system: pentylene tetrazole-induced seizures; assay: PTZ chemoconvulsant assay; format: in vivo, mouse; details: mice
Text: We compared anticonvulsant activities of test compounds in male C57BL/6 mice (Charles River) aged 2–3 months. Mice were housed and used according to the recommendations in the Guide for the Care and Use of Laboratory Animals of the National Institutes of Health (NIH Publication, 8th edition, 2011). The study protocol was approved by the Institutional Animal Care and Use Committee of University of California, Irvine, which confirmed that all relevant ethical regulations were adhered to. Chemicals were sourced from Sigma (St. Louis, MO, USA) . A pentylene tetrazole (PTZ) chemoconvulsant assay was used[54]. […] Following the PTZ injection, mice were caged individually and an observer (GWA) blinded to the drug used recorded, over 20 min, clonic and tonic seizure incidence, and seizure-related mortality.
All values are expressed as mean ± SEM. Chi-squared analysis was used to compare seizure-related mortality in mice. One-way ANOVA was applied for all other tests; if multiple comparisons were performed, a post-hoc Tukey’s HSD test was performed following ANOVA. All p-values were two-sided. Statistical significance was defined as p < 0.05.

KCNQ2/3 channels = KCNQ2/3 channels (Homo sapiens, UniProt O43525+O43526); assay: Relative ion permeability of KCNQ2/3 channels (pseudo-bi-ionic substitution, GRb/GK); format: cell-based; details: MTX 30 µM
Protocol: For relative permeability studies, currents were recorded in response to a single pulse to +40 mV for 5 s, followed by pulses between −80 mV and +40 mV at 20 mV intervals, from a holding potential of −80 mV, to yield a current–voltage relationship. According to the Goldman–Hodgkin–Katz (GHK) voltage equation:2 Erev=RT∕FlnPKK^+O+PNaNaO+PClCli/PKK^+i+PNaNai+PClClo, where Erev is the absolute reversal potential and P is the permeability. This permits calculation of the relative permeability of each ion if concentrations on either side of the membrane are known. A modified version of this equation was used here to determine relative permeability of two ions in a system in which only the extracellular ion concentration was known. Thus, relative permeability of Rb^+, Cs^+, and Na^+ compared to K^+ ions was calculated for all channels by plotting the I/V relationships for each channel with each extracellular ion (100 mM) and comparing them to that with 100 mM extracellular K^+ ion to yield a change in reversal potential (ΔErev) for each ion compared to that of K^+. Permeability ratios for each ion compared to K^+ were then calculated as3 ΔErev=Erev,X-Erev,K=RT/zFlnPX/PK
For calculating Rb^+/K^+ permeability (Fig. 3g), tail currents were elicited by a single pulse to +40 mV, followed by a pulse at −80 mV, from a holding potential of −80 mV in 98 mM [K^+] and then 98 mM [Rb^+]. […]

[2] = rats fed Mallotus philippensis extract; cited from earlier work
KCNA1 = KCNA1 (Homo sapiens, UniProt Q09470); assay: Two-electrode voltage-clamp of KCNA1 in Xenopus oocytes; format: cell-based; details: MTX concentration not given; IVA 500 µM
Chain of KCNA1 (Q09470 whole entry): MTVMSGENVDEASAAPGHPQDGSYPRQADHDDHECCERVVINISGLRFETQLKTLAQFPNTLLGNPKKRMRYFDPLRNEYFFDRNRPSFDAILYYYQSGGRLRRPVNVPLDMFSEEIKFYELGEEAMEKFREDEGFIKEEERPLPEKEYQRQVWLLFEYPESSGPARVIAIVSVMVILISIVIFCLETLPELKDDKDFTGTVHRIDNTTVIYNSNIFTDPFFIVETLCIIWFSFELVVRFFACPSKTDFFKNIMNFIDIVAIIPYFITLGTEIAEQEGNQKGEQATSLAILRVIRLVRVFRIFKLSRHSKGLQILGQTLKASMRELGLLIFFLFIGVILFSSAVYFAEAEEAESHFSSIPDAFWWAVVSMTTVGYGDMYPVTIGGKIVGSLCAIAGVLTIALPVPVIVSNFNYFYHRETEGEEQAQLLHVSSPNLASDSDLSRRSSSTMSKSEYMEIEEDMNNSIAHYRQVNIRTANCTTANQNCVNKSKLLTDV
Text: (§1) cRNA transcripts encoding human KCNA1, KCNQ1, KCNQ2, KCNQ3, KCNQ4, or KCNQ5 were generated by in vitro transcription using the T7 polymerase message machine kit (Thermo Fisher Scientific), after vector linearization, from cDNA sub-cloned into plasmids incorporating X. laevis β-globin 5′ and 3′ UTRs flanking the coding region to enhance translation and cRNA stability. cRNA was quantified by spectrophotometry. Mutant cDNAs were generated by site-directed mutagenesis using a QuikChange kit according to manufacturer’s protocol (Stratagene, San Diego, CA) and corresponding cRNAs prepared as above. Defolliculated stage V and VI X. laevis oocytes (Ecocyte Bioscience, Austin, TX) were injected with Kv channel α subunit cRNAs (10 ng total per oocyte). Oocytes were incubated at 16 °C in Barth’s saline solution (Ecocyte) containing penicillin and streptomycin, with daily washing, for 3–5 days prior to two-electrode voltage-clamp (TEVC) recording.
Oocytes were placed in a small-volume oocyte bath (Warner) and viewed with a dissection microscope. Chemicals were sourced from Sigma. Bath solution was (in mM): 96 NaCl, 4 KCl, 1 MgCl2, 1 CaCl2, 10 HEPES (pH 7.6). […] MTX (DMSO), sorbic acid (ethanol), and glutaconic acid (molecular grade H2O) were stored at −20 °C as 1 M stocks. Oleamide was stored as a 1 mM stock in ethanol at 4 °C. Palmitic acid was conjugated with bovine serum albumin as a 1 mM stock and stored at −20 °C. All compounds were diluted to working concentrations each experimental day. All compounds were introduced to the recording bath via gravity perfusion at a constant flow of 1 ml/min for 3 min prior to recording. Pipettes were of 1–2 MΩ resistance when filled with 3 M KCl. Currents were recorded in response to pulses between −80 and +40 mV at 20 mV intervals, or a single pulse to +40 mV, from a holding potential of −80 mV, to yield current–voltage relationships, current magnitude, and for quantifying activation rate. […]

Q2/W265L-Q3 channels = Q2/W265L-Q3 channels (Homo sapiens, UniProt O43525+O43526, W265L); assay: Two-electrode voltage-clamp of Q2/W265L-Q3 mutant channels in Xenopus oocytes; format: cell-based; details: for Non-normalized tail current V0.5 / Normalized tail current V0.5 / Slope: Q2/W265L-Q3
Chain of Q2/W265L-Q3 channels (O43526 whole entry): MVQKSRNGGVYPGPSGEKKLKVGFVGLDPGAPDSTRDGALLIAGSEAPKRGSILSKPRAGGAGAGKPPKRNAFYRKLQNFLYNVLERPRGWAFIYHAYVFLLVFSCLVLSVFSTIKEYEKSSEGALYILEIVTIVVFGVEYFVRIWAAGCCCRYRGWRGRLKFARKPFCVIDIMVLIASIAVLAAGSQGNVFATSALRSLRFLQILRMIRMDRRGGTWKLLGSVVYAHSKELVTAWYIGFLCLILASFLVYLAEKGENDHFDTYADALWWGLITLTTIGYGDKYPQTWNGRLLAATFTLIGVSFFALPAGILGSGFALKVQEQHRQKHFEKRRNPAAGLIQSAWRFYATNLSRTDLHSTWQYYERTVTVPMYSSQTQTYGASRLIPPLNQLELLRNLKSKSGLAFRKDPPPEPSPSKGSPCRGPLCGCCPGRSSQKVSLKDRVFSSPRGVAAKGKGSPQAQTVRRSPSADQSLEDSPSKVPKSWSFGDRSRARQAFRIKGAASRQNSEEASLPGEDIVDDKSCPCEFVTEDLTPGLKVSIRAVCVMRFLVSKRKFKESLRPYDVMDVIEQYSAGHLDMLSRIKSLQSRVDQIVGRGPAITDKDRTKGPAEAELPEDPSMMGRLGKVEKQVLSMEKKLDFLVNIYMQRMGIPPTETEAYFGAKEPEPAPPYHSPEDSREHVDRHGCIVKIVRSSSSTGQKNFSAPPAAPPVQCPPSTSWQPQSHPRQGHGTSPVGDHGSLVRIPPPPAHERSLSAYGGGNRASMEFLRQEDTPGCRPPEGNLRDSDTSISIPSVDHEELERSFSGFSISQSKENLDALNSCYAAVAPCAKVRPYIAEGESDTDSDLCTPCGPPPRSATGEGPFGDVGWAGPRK
Chain of Q2/W265L-Q3 channels (O43525 whole entry W265L): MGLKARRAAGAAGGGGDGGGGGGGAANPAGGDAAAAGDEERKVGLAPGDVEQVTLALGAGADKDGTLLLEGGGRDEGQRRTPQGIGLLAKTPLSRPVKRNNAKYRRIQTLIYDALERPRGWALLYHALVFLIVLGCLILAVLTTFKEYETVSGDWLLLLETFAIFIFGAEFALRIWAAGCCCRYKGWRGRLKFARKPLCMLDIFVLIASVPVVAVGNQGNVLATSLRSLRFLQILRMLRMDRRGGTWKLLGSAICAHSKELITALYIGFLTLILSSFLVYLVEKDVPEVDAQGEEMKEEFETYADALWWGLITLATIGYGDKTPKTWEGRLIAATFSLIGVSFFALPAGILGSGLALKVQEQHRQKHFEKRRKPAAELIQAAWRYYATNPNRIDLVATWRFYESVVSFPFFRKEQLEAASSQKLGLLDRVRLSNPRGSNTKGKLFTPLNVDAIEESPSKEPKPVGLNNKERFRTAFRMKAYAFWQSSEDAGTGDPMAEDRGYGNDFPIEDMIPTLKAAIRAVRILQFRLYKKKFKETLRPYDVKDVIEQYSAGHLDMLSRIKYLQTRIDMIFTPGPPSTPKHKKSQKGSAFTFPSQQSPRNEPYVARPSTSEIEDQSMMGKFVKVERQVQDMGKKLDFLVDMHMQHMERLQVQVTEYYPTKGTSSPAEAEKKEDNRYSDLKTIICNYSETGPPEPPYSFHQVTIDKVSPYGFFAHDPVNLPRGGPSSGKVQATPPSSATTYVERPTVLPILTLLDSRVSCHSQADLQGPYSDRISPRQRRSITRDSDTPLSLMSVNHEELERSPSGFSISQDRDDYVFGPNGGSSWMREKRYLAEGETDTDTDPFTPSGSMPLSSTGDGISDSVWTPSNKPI
Text: as §1
(§2) Oocytes were placed in a small-volume oocyte bath (Warner) and viewed with a dissection microscope. Chemicals were sourced from Sigma. Bath solution was (in mM): 96 NaCl, 4 KCl, 1 MgCl2, 1 CaCl2, 10 HEPES (pH 7.6). […] MTX (DMSO), sorbic acid (ethanol), and glutaconic acid (molecular grade H2O) were stored at −20 °C as 1 M stocks. Oleamide was stored as a 1 mM stock in ethanol at 4 °C. Palmitic acid was conjugated with bovine serum albumin as a 1 mM stock and stored at −20 °C. All compounds were diluted to working concentrations each experimental day. All compounds were introduced to the recording bath via gravity perfusion at a constant flow of 1 ml/min for 3 min prior to recording. Pipettes were of 1–2 MΩ resistance when filled with 3 M KCl. Currents were recorded in response to pulses between −80 and +40 mV at 20 mV intervals, or a single pulse to +40 mV, from a holding potential of −80 mV, to yield current–voltage relationships, current magnitude, and for quantifying activation rate. TEVC data analysis was performed with Clampfit10.2 (Molecular Devices) and Graphpad Prism software (GraphPad, San Diego, CA, USA); values are stated as mean ± SEM. Normalized tail currents were plotted versus prepulse voltage and fitted with a single Boltzmann function:1 g=A1-A2/1+expV12-Vy+A2, where g is the normalized tail conductance, A1 is the initial value at −∞, A2 is the final value at +∞, V1/2 is the half-maximal voltage of activation, and Vs the slope factor. Activation and deactivation kinetics were fitted with single-exponential functions.

W236L-Q2/Q3 channels = W236L-Q2/Q3 channels (Homo sapiens, UniProt O43525+O43526, W236L); assay: Two-electrode voltage-clamp of W236L-Q2/Q3 mutant channels in Xenopus oocytes; format: cell-based; details: for Non-normalized tail current V0.5 / Normalized tail current V0.5 / Slope: W236L-Q2/Q3
Chain of W236L-Q2/Q3 channels (O43525 whole entry): as the sequence (O43525 whole entry W265L) above, with L265W counted along it
Chain of W236L-Q2/Q3 channels (O43526 whole entry W236L): as the sequence (O43526 whole entry) above, with W236L counted along it
Text: as §1, §2

[3] = test system: water-injected control oocytes; assay: Two-electrode voltage-clamp of water-injected control oocytes; format: cell-based, Xenopus laevis
Text: Chemicals were sourced from Sigma.

## CC(=O)c1c(O)c(C)c(O)c(Cc2c(O)c3c(c(C(=O)/C=C/c4ccccc4)c2O)OC(C)(C)C=C3)c1O [MTX, mallotoxin]
[1]; 10 mg/kg i.p. alone
  clonic seizure incidence: neither compound reduced clonic seizures alone
[1]; 20 mg/kg i.p., 30 min before 80 mg kg−1 PTZ
  clonic seizure incidence: halved
[1]; individually
  suppression of PTZ-induced tonic seizures: ineffective
KCNQ2/3 channels; KCNQ2/3, baseline 0.75 ± 0.10
  GRb/GK (ratio of Rb+ conductance to K+ conductance): 0.52 ± 0.06
KCNQ2/3 channels; 100 mM extracellular ion
  relative ion permeability of KCNQ2/3 compared to K+: increased relative permeability of KCNQ2/3 to Na^+ and Cs^+, and decreased permeability to Rb^+
[2]
  Oral bioavailability: > 20%
  plasma concentrations: exceeded 2 µg/ml
KCNA1
  effect on KCNA1 currents: no effect
Q2/W265L-Q3 channels; EC50, Q2/W265L-Q3, calculated from dose responses
  EC50: 70 ± 0.6 µM
Q2/W265L-Q3 channels; 1 µM
  Non-normalized tail current V0.5: -51.3 ± 11.3 mV
  Normalized tail current V0.5: -45.7 ± 2.9 mV
  Slope: 7.9 ± 1.7 mV
Q2/W265L-Q3 channels; 3 µM
  Non-normalized tail current V0.5: -52.7 ± 10.5 mV
  Normalized tail current V0.5: -49.2 ± 2.6 mV
  Slope: 7.9 ± 1.8 mV
Q2/W265L-Q3 channels; 10 µM
  Non-normalized tail current V0.5: -54.0 ± 9.7 mV
  Normalized tail current V0.5: -51.8 ± 2.4 mV
  Slope: 7.6 ± 1.4 mV
Q2/W265L-Q3 channels; 30 µM
  Non-normalized tail current V0.5: -58.0 ± 8.3 mV
  Normalized tail current V0.5: -56.3 ± 2.2 mV
  Slope: 7.4 ± 1.6 mV
Q2/W265L-Q3 channels; 100 µM
  Non-normalized tail current V0.5: -63.7 ± 11.2 mV
  Normalized tail current V0.5: -61.8 ± 2.2 mV
  Slope: 6.6 ± 2.1 mV
Q2/W265L-Q3 channels; V0.5 EC50, Q2/W265L-Q3, calculated from shift in V0.5
  EC50: 13.7 ± 0.3 µM
W236L-Q2/Q3 channels; EC50, W236L-Q2/Q3, calculated from dose responses
  EC50: 27 ± 0.6 µM
W236L-Q2/Q3 channels; V0.5 EC50, W236L-Q2/Q3, calculated from shift in V0.5
  EC50: 37.3 ± 0.2 µM
W236L-Q2/Q3 channels; 1 µM
  Non-normalized tail current V0.5: -55.7 ± 1.9 mV
  Normalized tail current V0.5: -57.1 ± 0.9 mV
  Slope: 6.0 ± 0.7 mV
W236L-Q2/Q3 channels; 3 µM
  Non-normalized tail current V0.5: -55.4 ± 2.1 mV
  Normalized tail current V0.5: -57.8 ± 1.3 mV
  Slope: 3.9 ± 2.2 mV
W236L-Q2/Q3 channels; 10 µM
  Non-normalized tail current V0.5: -57.3 ± 2.7 mV
  Normalized tail current V0.5: -58.1 ± 0.9 mV
  Slope: 6.2 ± 0.7 mV
W236L-Q2/Q3 channels; 30 µM
  Non-normalized tail current V0.5: -61.9 ± 3.9 mV
  Normalized tail current V0.5: -62.4 ± 1.3 mV
  Slope: 6.6 ± 0.9 mV
W236L-Q2/Q3 channels; 100 µM
  Non-normalized tail current V0.5: -67.9 ± 7.7 mV
  Normalized tail current V0.5: -71.4 ± 4.5 mV
  Slope: 6.8 ± 1.2 mV
[3]
  effect on endogenous current and EM of water-injected control oocytes: no effect
